Measurements reported in the supplement of paper PMC10307832.

Key:
Assay in all cases: relative viability (nuclei count vs DMSO), 5 days (fraction); higher = more cells survive
[1] = compound: Cn1cncc1[C@@](N)(c1ccc(Cl)cc1)c1ccc2c(c1)c(-c1cccc(Cl)c1)cc(=O)n2C [Tipifarnib] + CC1(C)CCC(c2ccc(Cl)cc2)=C(CN2CCN(c3ccc(C(=O)NS(=O)(=O)c4ccc(N[C@H](CCN5CCOCC5)CSc5ccccc5)c(S(=O)(=O)C(F)(F)F)c4)cc3)CC2)C1 [Navitoclax] (partner 0.5 µM)
Procedure, shortened: (§1)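 For relative viability, nuclei counts in treated wells were divided by those in vehicle wells. Lung cancer cell lines had been pin-tool dosed in 1536-well plates the day after seeding and cultured for 5 days, then fixed and stained in one step (final 0.05% Triton X-100, 1% formaldehyde, 1 ug/ml Hoechst) and imaged at 4×. Doses were one drug alone or a fixed anchor-drug dose plus five library-drug doses (not always all listed) in √10 steps, and values are duplicate-plate medians.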

[2] = compound: Cn1cncc1[C@@](N)(c1ccc(Cl)cc1)c1ccc2c(c1)c(-c1cccc(Cl)c1)cc(=O)n2C [Tipifarnib] + CC(=O)Nc1cccc(-n2c(=O)n(C3CC3)c(=O)c3c(Nc4ccc(I)cc4F)n(C)c(=O)c(C)c32)c1 [Trametinib] (partner 0.02 µM)
Procedure, shortened: as §1

[3] = compound: Cn1cncc1[C@@](N)(c1ccc(Cl)cc1)c1ccc2c(c1)c(-c1cccc(Cl)c1)cc(=O)n2C [Tipifarnib] + N=C(N)NC(=N)NCCc1ccccc1 [Phenformin] (partner 250 µM)
Procedure, shortened: as §1

[4] = compound: Cn1cncc1[C@@](N)(c1ccc(Cl)cc1)c1ccc2c(c1)c(-c1cccc(Cl)c1)cc(=O)n2C [Tipifarnib] + Nc1nc2[nH]cc(CCc3ccc(C(=O)N[C@@H](CCC(=O)O)C(=O)O)cc3)c2c(=O)[nH]1 [Pemetrexed] (partner 0.2 µM)
Procedure, shortened: as §1

Row | Cell Line | relative viability ([1]; first compound 0.01 µM) | relative viability ([1]; first compound 0.03162 µM) | relative viability ([1]; first compound 0.1 µM) | relative viability ([1]; first compound 0.3162 µM) | relative viability ([1]; first compound 1 µM) | relative viability ([2]; first compound 0.01 µM) | relative viability ([2]; first compound 0.03162 µM) | relative viability ([2]; first compound 0.1 µM) | relative viability ([2]; first compound 0.3162 µM) | relative viability ([2]; first compound 1 µM) | relative viability ([3]; first compound 0.01 µM) | relative viability ([3]; first compound 0.03162 µM) | relative viability ([3]; first compound 0.1 µM) | relative viability ([3]; first compound 0.3162 µM) | relative viability ([3]; first compound 1 µM) | relative viability ([4]; first compound 0.01 µM) | relative viability ([4]; first compound 0.03162 µM) | relative viability ([4]; first compound 0.1 µM) | relative viability ([4]; first compound 0.3162 µM) | relative viability ([4]; first compound 1 µM)
1 | NCI-H838 | 1.09 | 0.978 | 0.932 | 0.854 | 0.862 | 0.47 | 0.483 | 0.434 | 0.431 | 0.374 | 0.547 | 0.504 | 0.421 | 0.44 | 0.389 | 0.259 | 0.264 | 0.293 | 0.269 | 0.269
2 | SW 1573 | 1.05 | 0.678 | 0.49 | 0.407 | 0.331 | 0.487 | 0.354 | 0.362 | 0.255 | 0.25 | 0.362 | 0.299 | 0.268 | 0.156 | 0.197 | 0.781 | 0.719 | 0.458 | 0.383 | 0.245
3 | PC-14 | 1.05 | 0.847 | 0.658 | 0.482 | 0.51 | 0.579 | 0.357 | 0.447 | 0.2 | 0.334 | 0.512 | 0.494 | 0.282 | 0.239 | 0.128 | 0.123 | 0.154 | 0.157 | 0.146 | 0.149
4 | LK-2 | 1.08 | 0.65 | 0.7 | 0.421 | 0.373 | 0.613 | 0.971 | 0.766 | 0.559 | 0.597 | 0.471 | 0.11 | 0.428 | 0.248 | 0.184 | 0.31 | 0.313 | 0.279 | 0.232 | 0.122
5 | COR-L23 | 1.15 | 0.804 | 0.679 | 0.492 | 0.556 | 0.609 | 0.301 | 0.329 | 0.33 | 0.277 | 0.469 | 0.351 | 0.361 | 0.305 | 0.238 | 0.215 | 0.205 | 0.195 | 0.206 | 0.188
6 | LCLC-103H | – | – | – | – | – | 0.649 | 0.674 | 0.646 | 0.642 | 0.667 | 0.326 | 0.319 | 0.275 | 0.267 | 0.295 | 0.517 | 0.45 | 0.49 | 0.49 | 0.507
7 | ABC-1 | – | – | – | – | – | – | – | – | – | – | 0.241 | – | 0.264 | 0.242 | 0.231 | – | – | – | – | –
8 | NCI-H358 | – | – | – | – | – | 0.143 | 0.102 | 0.133 | 0.107 | 0.135 | 0.372 | 0.45 | 0.307 | 0.323 | 0.168 | 0.183 | 0.185 | 0.193 | 0.182 | 0.169
9 | NCI-H1563 | – | – | – | – | – | – | – | – | – | – | 0.631 | 0.696 | 0.655 | 0.637 | 0.577 | 0.731 | 0.799 | 0.777 | 0.655 | 0.665
10 | EBC-1 | 0.27 | 0.187 | 0.207 | 0.143 | 0.186 | – | – | – | – | – | – | – | – | – | – | – | – | – | – | –
11 | Calu-6 | 0.538 | 0.35 | 0.196 | 0.194 | 0.2 | – | – | – | – | – | – | – | – | – | – | – | – | – | – | –
